Two molecules from US5258378A, “Pyrroloazepine compounds useful as dopaminergic agents” (Lilly Industries Limited, priority 1990, dated 1993) can be followed below.

Each structure is given as a SMILES string. pIC50: −log10 of the molar value.

The target of this assay is T1, dopamine, D1 receptors (Rattus norvegicus, UniProt P18901).
T1 construct: from tissue; host or cells: rat striatum (inferred from the cited Billard et al. 1984)
In words: 3H-SCH23390 binding test (Billard et al.). To be noted: 3H-SCH23390 radioligand; read-out: IC50 value (the concentration of the compound required to reduce the binding of 3H-SCH23390 by 50%). An excerpt: As mentioned above, the compounds of formula (I), with the exception of those in which both R^1 and R^2 are hydrogen and those in which R^3 in optionally substituted phenylsulphonyl, have useful central nervous system activity with low toxicity. […] The compounds of formula (I) and pharmaceutically-acceptable acid addition salts thereof, are potent centrally acting compounds which are useful in the treatment of depression, mild anxiety states, certain kinds of psychotic conditions such as schizophrenia and acute mania and parkinsonism.

T1 sequence (P18901 whole entry): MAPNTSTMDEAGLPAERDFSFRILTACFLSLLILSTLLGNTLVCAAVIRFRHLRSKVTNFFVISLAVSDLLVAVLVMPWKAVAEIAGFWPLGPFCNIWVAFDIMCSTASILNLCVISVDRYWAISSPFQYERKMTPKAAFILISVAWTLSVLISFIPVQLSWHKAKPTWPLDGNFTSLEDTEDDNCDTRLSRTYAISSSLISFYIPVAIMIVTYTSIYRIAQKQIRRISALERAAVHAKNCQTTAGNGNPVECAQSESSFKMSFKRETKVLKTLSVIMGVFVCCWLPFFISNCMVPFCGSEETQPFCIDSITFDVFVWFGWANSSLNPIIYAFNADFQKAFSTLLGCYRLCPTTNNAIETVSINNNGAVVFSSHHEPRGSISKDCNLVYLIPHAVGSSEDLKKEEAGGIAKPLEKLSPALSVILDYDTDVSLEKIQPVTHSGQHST

For the molecule `CN1CCc2c([nH]c(Br)c2Br)C(c2ccccc2)C1` (racemic) [Example 10, 2,3-Dibromo-1,4,5,6,7,8-hexahydro-6-methyl-8-phenylpyrrolo[2,3-d]azepine], the pIC50 was 5.96. With `CN1CCc2c(Br)c[nH]c2C(c2ccccc2)C1` (racemic) [Example 12, 3-Bromo-1,4,5,6,7,8-hexahydro-6-methyl-8-phenylpyrrolo[2,3-d]azepine] the figure was 6.82.
